This note sets out measurements from patent publication US20240067702A1, “LACTAM-MODIFIED P[…]” (DONGBAO PURPLE STAR (HANGZHOU) BIOPHARMACEUTICAL CO., LTD., priority 2020, published 2024).

Molecules are shown by their SMILES. *1 amine or outer side, *2 acyl side, *3 side chain or, on linkers, in order; H or OH if unused. Where a SMILES comes first, the peptide text is derived from it. Bridges are numbered along the chain shown (N, C = ends). Side-chain parts run from the residue outwards. [ ]: non-standard residue; d: D form. The star is where a group is joined. C20 diacid = O=C(O)CCCCCCCCCCCCCCCCCCC(=O)*; γGlu = O=C(O)[C@H](CCC(=O)[*:2])N[*:1]; AEEA = NCCOCCOCC(=O)O; Aib = CC(C)(N)C(=O)O

Data set [1] can be described thus: Pharmacokinetic evaluation in C57BL/6 mice. In kind it is in vivo. Particulars: mouse, plasma, 0.048 mg/kg. The procedure:
To test the pharmacokinetics of compounds in C57BL/6 mice in vivo
The pharmacokinetic characteristics of the compounds in rodents after intravenous injection and subcutaneous injection were tested according to the standard protocol. In the experiment, the candidate compounds were formulated into clear solutions, and a single intravenous injection (IV, 0.048 mpk) and subcutaneous injection (SC, 0.048 mpk) were given to the mice. The vehicle for intravenous injection was PBS buffer (pH=7), and the vehicle for subcutaneous injection was citrate buffer (20 mM, pH=7). Whole blood was collected and prepared to obtain plasma. Drug concentration was analyzed by LC-MS/MS method, and pharmacokinetic parameters were calculated by Phoenix WinNonlin software.

The target in a further data set is T1, GIPR (Homo sapiens, UniProt P48546).
T1 construct: host or cells: CHO
T1 sequence (P48546 22-466): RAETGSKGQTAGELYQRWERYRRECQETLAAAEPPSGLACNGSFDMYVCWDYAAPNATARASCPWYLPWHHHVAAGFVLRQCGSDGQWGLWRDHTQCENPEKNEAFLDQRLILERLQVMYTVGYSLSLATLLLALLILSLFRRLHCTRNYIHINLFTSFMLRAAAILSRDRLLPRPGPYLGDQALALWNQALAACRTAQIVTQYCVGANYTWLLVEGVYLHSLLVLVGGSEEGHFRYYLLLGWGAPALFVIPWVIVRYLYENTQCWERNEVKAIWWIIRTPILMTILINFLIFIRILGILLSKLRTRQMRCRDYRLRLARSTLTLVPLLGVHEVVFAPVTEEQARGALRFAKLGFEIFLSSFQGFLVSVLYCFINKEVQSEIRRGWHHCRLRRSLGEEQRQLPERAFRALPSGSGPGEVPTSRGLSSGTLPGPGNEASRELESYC
Briefly: GIPR agonist activity test in vitro (cAMP assay). In kind it is cell-based. Particulars: CHO host cell. The procedure: (§1) The cell strains were constructed by Shanghai WuXi AppTec.
(§2) The test compound was serially diluted 4-fold with 10 points. The initial concentration was 30 μM, and the dilution was completed with Bravo.
(§3) 1) 100 nL of the compound was transferred to OptiPlate-384 plate using Echo.
(§4) 7) The GLP-1R/GIPR cell concentration was diluted to 2.0*10^5/mL with the experimental buffer.
(§5) 8) […] of the diluted cell suspension was transferred into the OptiPlate-384 plate.
(§6) 9) The diluted cell suspension was incubated at room temperature for 30 minutes.
(§7) 2) 10 μL of cAMP detection reagent was added.
(§8) 3) The OptiPlate-384 plate was covered with TopSeal-A film and incubated at room temperature for 60 minutes.
(§9) TopSeal-A was removed and read in EnVision.

The nature of data set [2]: Plasma stability (PLS) test, mouse plasma. To be noted: pH 7.4, 37° C., up to 120 min, read-out: PLS (H/M) T1/2. In kind it is in vitro ADME. The procedure: To study the stability of test compounds in the plasma of normal mice.
1. Before the experiment, the coagulated frozen plasma was thawed in a water bath at 37° C. Plasma was centrifuged at 4000 rpm for 5 min. If there was blood clot, the blood clot was removed and the pH value was adjusted to 7.4±0.1.
2. Preparation of the test compound solution: 100 μM of the solution was prepared by dilution with DMSO.
3. 98 μL of blank control plasma was added to 2 μL of the test compound solution (100 μM), so that the final concentration of the mixed solution of the two reached 2 μM, and the mixed solution was placed in a 37° C. water bath for incubation.
4. At each time point (0, 10, 30, 60, and 120 min), 1(X) μL of H3PO4 solution and 800 μL of stop solution (200 ng/mL of tolbutamide and 200 ng/mL of labetalol in 100% methanol solution) were added to precipitate protein, and mixed thoroughly.
5. The samples were centrifuged at 4000 rpm for 20 min, and 1(X) μL of supernatant was taken from each well for LC-MS/MS analysis.

For a further data set, the target named is T2, GLP-1R (Homo sapiens, UniProt P43220).
T2 construct: host or cells: HEK293
Briefly: GLP-1R agonist activity test in vitro (cAMP assay). The data set is classed as cell-based. Particulars: HEK293 host cell. The procedure: as §1, §2, §3, §4, §5, §6, §7, §8, §9

Another data set deals with human plasma albumin. Briefly: Plasma protein binding (PPB) test, human. In kind it is in vitro ADME. Set-up: key: NA means the plasma-protein binding is too high, and no free drug can be detected under a normal concentration of plasma protein. Particulars: ultracentrifugation. The procedure:
To study the binding of the test compounds to human/mouse plasma albumin.
1. Matrix preparation: On the day of the experiment, the plasma was thawed in cold water and centrifuged at 3220 rpm for 5 min to remove all blood clots. The pH of the obtained plasma was measured and adjusted to 7.4±0.1 using 1% phosphoric acid or 1N sodium hydroxide as needed.
2. Dilution steps of the test compounds: The test compounds were dissolved in dimethyl sulfoxide (DMSO) to prepare stock solutions at concentrations of 10 mM and 2 mM, respectively. A 40 μM working solution was prepared by diluting 2 μL of the stock solution (2 mM) with 98 μL of DMSO. A 400 μM working solution of the control compound was prepared by diluting 10 μL of the stock solution with 240 μL of DMSO. The working solution of the compound (5 μL) was mixed with the blank matrix (995 μL) at a ratio of 1:200 to prepare the loading matrix.
3.1 An equal amount of 30 μL of the loading matrix (n=2) was transferred to the sample collection plate to prepare samples of time 0 (TO) for residue determination. The samples were immediately matched to the corresponding blank buffer in a final volume of 60 μL with a 1:1 volume ratio of plasma to buffer in each well. Then, 60 μL of 4% H3PO4 in H2O and 480 μL of stop solution containing an internal standard were then added to the TO samples of the test compounds. […]

T2 sequence (P43220 24-463): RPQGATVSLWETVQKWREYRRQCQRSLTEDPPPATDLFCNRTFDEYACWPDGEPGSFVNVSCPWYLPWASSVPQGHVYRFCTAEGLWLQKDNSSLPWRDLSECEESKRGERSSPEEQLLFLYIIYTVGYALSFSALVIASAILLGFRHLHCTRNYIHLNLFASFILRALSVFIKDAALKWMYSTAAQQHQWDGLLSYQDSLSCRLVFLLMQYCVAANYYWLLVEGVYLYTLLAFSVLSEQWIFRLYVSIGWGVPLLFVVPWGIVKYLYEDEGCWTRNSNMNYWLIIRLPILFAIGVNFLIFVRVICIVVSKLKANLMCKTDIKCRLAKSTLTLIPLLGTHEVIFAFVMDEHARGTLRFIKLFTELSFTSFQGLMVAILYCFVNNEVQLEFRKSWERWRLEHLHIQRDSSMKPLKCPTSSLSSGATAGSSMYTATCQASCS

With `CC[C@H](C)[C@H](NC(=O)[C@H](CC(C)C)NC(=O)[C@H](Cc1c[nH]c2ccccc12)NC(=O)[C@@H]1CCC(=O)NCCCC[C@H](NC(=O)[C@H](CCC(N)=O)NC(=O)[C@H](C)NC(=O)[C@H](CCCCNC(=O)COCCOCCNC(=O)COCCOCCNC(=O)CC[C@H](NC(=O)CCCCCCCCCCCCCCCCCCC(=O)O)C(=O)O)NC(=O)[C@H](CCCCN)NC(=O)[C@H](CC(=O)O)NC(=O)[C@H](CC(C)C)NC(=O)C(C)(C)NC(=O)[C@@H](NC(=O)[C@H](CO)NC(=O)[C@H](Cc2ccc(O)cc2)NC(=O)[C@H](CC(=O)O)NC(=O)[C@H](CO)NC(=O)[C@@H](NC(=O)[C@H](Cc2ccccc2)NC(=O)[C@@H](NC(=O)CNC(=O)[C@H](CCC(=O)O)NC(=O)C(C)(C)NC(=O)[C@@H](N)Cc2ccc(O)cc2)[C@@H](C)O)[C@@H](C)O)[C@@H](C)CC)C(=O)N[C@@H](C)C(=O)N[C@@H](Cc2ccccc2)C(=O)N[C@@H](C(C)C)C(=O)N1)C(=O)N[C@@H](C)C(=O)NCC(=O)NCC(=O)N1CCC[C@H]1C(=O)N[C@@H](CO)C(=O)N[C@@H](CO)C(=O)NCC(=O)N[C@@H](C)C(=O)N1CCC[C@H]1C(=O)N1CCC[C@H]1C(=O)N1CCC[C@H]1C(=O)N[C@@H](CO)C(N)=O` [WX-001] (H-Y[Aib]EGTFTSDYSI[Aib]LDKK([AEEA-AEEA-γGlu-C20 diacid])AQKAFVEWLIAGGPSSGAPPPS-NH2; lactam 20-24), the half-life in data set [1] (0.048 mpk IV/SC, read-out: Half-life T1/2 (converted)) was 15.5 h. In data set [1] (IV 0.048 mpk), this compound showed a clearance of 5.28 mL/h/kg. In addition, the AUC(0-t) in data set [1] (SC 0.048 mpk, read-out: SC Concentration Integral AUC0-72 h) amounted to 1.55 µM·h. Further, the bioavailability in data set [1] (subcutaneous, SC 0.048 mpk vs IV 0.048 mpk, read-out: Bioavailability F) worked out at 85.5%. In addition, the EC50 amounted to 23 nM at GIPR (GIPR Agonist Activity EC50 (+) 1% HSA, with 1% HSA); 0.44 nM on GIPR (GIPR Agonist Activity EC50 (−) 1% HSA, without 1% HSA); 3.66 nM at GLP-1R (GLP-IR Agonist Activity EC50 (+) 1% HSA, with 1% HSA); 0.014 nM on GLP-1R (GLP-IR Agonist Activity EC50 (−) 1% HSA, without 1% HSA). Further, the half-life at 2 μM in data set [2] was more than 4.82 h. For the same compound, the “PPB % unbound (H/M), H” value with human plasma albumin is “NA/NA”.

Broadly, the clearance is the rate of elimination divided by the concentration. For orientation: bioavailability means the share of a dose that reaches the circulation, judged against a reference dose that is usually intravenous. In general, EC50 refers to the concentration giving half of the maximal effect.
